Experiments:
Assay in all cases: relative viability (nuclei count vs DMSO), 5 days (fraction); higher = more cells survive
[1] = compound: CC(C)CCN1c2nc(Nc3cc(F)c(O)c(F)c3)ncc2N(C)C(=O)C1C [BI-D1870] + COc1cccc2cc(-c3nc([C@H]4CC[C@H](C(=O)O)CC4)n4ncnc(N)c34)[nH]c12 [OSI-027] (partner 0.5 µM)
Summary of the method: (§1)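 Five library-drug doses in √10 steps were combined with a fixed anchor-drug dose, or a single drug was given alone, by pin tool to lung cancer cell lines in 1536-well plates the day after seeding. Nuclei were stained and counted after 5 days. Relative viability is the nuclei count in treated wells over that in vehicle wells, taken as the median of duplicate plates.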

[2] = compound: O=c1ncccn1[C@@H]1O[C@H](CO)[C@@H](O)[C@H]1O [Zebularine] + C[C@]1(O)C[C@@H](c2nc(-c3ccc4ccc(-c5ccccc5)nc4c3)c3c(N)nccn32)C1 [Linsitinib] (partner 1 µM)
Summary of the method: as §1

[3] = compound: O=c1ncccn1[C@@H]1O[C@H](CO)[C@@H](O)[C@H]1O [Zebularine] + CC1(C)CCC(c2ccc(Cl)cc2)=C(CN2CCN(c3ccc(C(=O)NS(=O)(=O)c4ccc(N[C@H](CCN5CCOCC5)CSc5ccccc5)c(S(=O)(=O)C(F)(F)F)c4)cc3)CC2)C1 [Navitoclax] (partner 0.5 µM)
Summary of the method: as §1

[4] = compound: CC(C)CCN1c2nc(Nc3cc(F)c(O)c(F)c3)ncc2N(C)C(=O)C1C [BI-D1870] + O=C(CCCCCCC(=O)Nc1ccccc1)NO [Vorinostat] (partner 1 µM)
Summary of the method: as §1

NCI-H2405
relative viability ([1]; first compound 0.04 µM): 0.675
relative viability ([1]; first compound 0.1265 µM): 0.634
relative viability ([1]; first compound 0.4 µM): 0.643
relative viability ([1]; first compound 1.265 µM): 0.688
relative viability ([1]; first compound 4 µM): 0.642
relative viability ([2]; first compound 1 µM): 0.891
relative viability ([2]; first compound 3.162 µM): 0.918
relative viability ([2]; first compound 10 µM): 0.873
relative viability ([2]; first compound 31.62 µM): 0.77
relative viability ([2]; first compound 100 µM): 0.643
relative viability ([3]; first compound 1 µM): 0.913
relative viability ([3]; first compound 3.162 µM): 0.831
relative viability ([3]; first compound 10 µM): 0.798
relative viability ([3]; first compound 31.62 µM): 0.833
relative viability ([3]; first compound 100 µM): 0.61
relative viability ([4]; first compound 0.04 µM): 1.04
relative viability ([4]; first compound 0.1265 µM): 1.03
relative viability ([4]; first compound 0.4 µM): 1
relative viability ([4]; first compound 1.265 µM): 0.974
relative viability ([4]; first compound 4 µM): 0.9

NCI-H3122
relative viability ([1]; first compound 0.04 µM): 1.08
relative viability ([1]; first compound 0.1265 µM): 0.876
relative viability ([1]; first compound 0.4 µM): 0.932
relative viability ([1]; first compound 1.265 µM): 1.07
relative viability ([1]; first compound 4 µM): 0.619
relative viability ([2]; first compound 1 µM): 1.13
relative viability ([2]; first compound 3.162 µM): 1.09
relative viability ([2]; first compound 10 µM): 0.848
relative viability ([2]; first compound 31.62 µM): 1.06
relative viability ([2]; first compound 100 µM): 1.04
relative viability ([3]; first compound 1 µM): 1.06
relative viability ([3]; first compound 3.162 µM): 1.02
relative viability ([3]; first compound 10 µM): 0.943
relative viability ([3]; first compound 31.62 µM): 1.08
relative viability ([3]; first compound 100 µM): 1.02
relative viability ([4]; first compound 0.04 µM): 1.05
relative viability ([4]; first compound 0.1265 µM): 0.633
relative viability ([4]; first compound 0.4 µM): 0.858
relative viability ([4]; first compound 1.265 µM): 1.21
relative viability ([4]; first compound 4 µM): 0.998

PC-3 [JPC-3]
relative viability ([1]; first compound 0.04 µM): 0.752
relative viability ([1]; first compound 0.1265 µM): 0.703
relative viability ([1]; first compound 0.4 µM): 0.674
relative viability ([1]; first compound 1.265 µM): 0.697
relative viability ([1]; first compound 4 µM): 0.565
relative viability ([2]; first compound 1 µM): 1.05
relative viability ([2]; first compound 3.162 µM): 0.956
relative viability ([2]; first compound 10 µM): 0.843
relative viability ([2]; first compound 31.62 µM): 0.856
relative viability ([2]; first compound 100 µM): 0.492
relative viability ([3]; first compound 1 µM): 0.751
relative viability ([3]; first compound 3.162 µM): 0.749
relative viability ([3]; first compound 10 µM): 0.603
relative viability ([3]; first compound 31.62 µM): 0.748
relative viability ([3]; first compound 100 µM): 0.583
relative viability ([4]; first compound 0.04 µM): 0.817
relative viability ([4]; first compound 0.1265 µM): 0.795
relative viability ([4]; first compound 0.4 µM): 0.81
relative viability ([4]; first compound 1.265 µM): 0.625
relative viability ([4]; first compound 4 µM): 0.394

PC-14
relative viability ([1]; first compound 0.04 µM): 0.995
relative viability ([1]; first compound 0.1265 µM): 0.626
relative viability ([1]; first compound 0.4 µM): 0.747
relative viability ([1]; first compound 1.265 µM): 0.773
relative viability ([1]; first compound 4 µM): 0.605
relative viability ([2]; first compound 1 µM): 1.07
relative viability ([2]; first compound 3.162 µM): 0.996
relative viability ([2]; first compound 10 µM): 0.281
relative viability ([2]; first compound 31.62 µM): 0.143
relative viability ([2]; first compound 100 µM): 0.179
relative viability ([3]; first compound 1 µM): 1.07
relative viability ([3]; first compound 3.162 µM): 1.06
relative viability ([3]; first compound 10 µM): 0.346
relative viability ([3]; first compound 31.62 µM): 0.113
relative viability ([3]; first compound 100 µM): 0.129
relative viability ([4]; first compound 0.04 µM): 0.825
relative viability ([4]; first compound 0.1265 µM): 0.625
relative viability ([4]; first compound 0.4 µM): 0.58
relative viability ([4]; first compound 1.265 µM): 0.699
relative viability ([4]; first compound 4 µM): 0.569

RERF-LC-KJ
relative viability ([1]; first compound 0.04 µM): 0.595
relative viability ([1]; first compound 0.1265 µM): 0.478
relative viability ([1]; first compound 0.4 µM): 0.558
relative viability ([1]; first compound 1.265 µM): 0.628
relative viability ([1]; first compound 4 µM): 0.389
relative viability ([2]; first compound 1 µM): 0.99
relative viability ([2]; first compound 3.162 µM): 0.916
relative viability ([2]; first compound 31.62 µM): 1.01
relative viability ([2]; first compound 100 µM): 1.03
relative viability ([3]; first compound 3.162 µM): 1.08
relative viability ([3]; first compound 10 µM): 0.507
relative viability ([3]; first compound 31.62 µM): 0.939
relative viability ([3]; first compound 100 µM): 0.968
relative viability ([4]; first compound 0.04 µM): 0.66
relative viability ([4]; first compound 0.1265 µM): 0.633
relative viability ([4]; first compound 0.4 µM): 0.669
relative viability ([4]; first compound 1.265 µM): 0.642
relative viability ([4]; first compound 4 µM): 0.47

SK-LU-1
relative viability ([1]; first compound 0.04 µM): 0.386
relative viability ([1]; first compound 0.1265 µM): 0.305
relative viability ([1]; first compound 0.4 µM): 0.26
relative viability ([1]; first compound 1.265 µM): 0.299
relative viability ([1]; first compound 4 µM): 0.199
relative viability ([2]; first compound 1 µM): 1.21
relative viability ([2]; first compound 3.162 µM): 0.936
relative viability ([2]; first compound 10 µM): 0.588
relative viability ([2]; first compound 31.62 µM): 0.611
relative viability ([2]; first compound 100 µM): 0.564
relative viability ([3]; first compound 1 µM): 0.965
relative viability ([3]; first compound 3.162 µM): 0.868
relative viability ([3]; first compound 10 µM): 0.435
relative viability ([3]; first compound 31.62 µM): 0.61
relative viability ([3]; first compound 100 µM): 0.306
relative viability ([4]; first compound 0.04 µM): 0.823
relative viability ([4]; first compound 0.1265 µM): 0.615
relative viability ([4]; first compound 0.4 µM): 0.71
relative viability ([4]; first compound 1.265 µM): 0.625
relative viability ([4]; first compound 4 µM): 0.35

SK-MES-1
relative viability ([1]; first compound 0.04 µM): 0.699
relative viability ([1]; first compound 0.1265 µM): 0.559
relative viability ([1]; first compound 0.4 µM): 0.567
relative viability ([1]; first compound 1.265 µM): 0.55
relative viability ([1]; first compound 4 µM): 0.336
relative viability ([2]; first compound 1 µM): 1.15
relative viability ([2]; first compound 3.162 µM): 1.14
relative viability ([2]; first compound 10 µM): 0.78
relative viability ([2]; first compound 31.62 µM): 0.567
relative viability ([2]; first compound 100 µM): 0.299
relative viability ([3]; first compound 1 µM): 1.41
relative viability ([3]; first compound 3.162 µM): 1.32
relative viability ([3]; first compound 10 µM): 0.781
relative viability ([3]; first compound 31.62 µM): 0.526
relative viability ([3]; first compound 100 µM): 0.33
relative viability ([4]; first compound 0.04 µM): 1.16
relative viability ([4]; first compound 0.1265 µM): 0.905
relative viability ([4]; first compound 0.4 µM): 0.933
relative viability ([4]; first compound 1.265 µM): 0.949
relative viability ([4]; first compound 4 µM): 0.691

SW 1573
relative viability ([1]; first compound 0.04 µM): 0.598
relative viability ([1]; first compound 0.1265 µM): 0.436
relative viability ([1]; first compound 0.4 µM): 0.513
relative viability ([1]; first compound 1.265 µM): 0.477
relative viability ([1]; first compound 4 µM): 0.329
relative viability ([2]; first compound 1 µM): 0.762
relative viability ([2]; first compound 3.162 µM): 0.851
relative viability ([2]; first compound 10 µM): 0.533
relative viability ([2]; first compound 31.62 µM): 0.779
relative viability ([2]; first compound 100 µM): 0.406
relative viability ([3]; first compound 1 µM): 1.04
relative viability ([3]; first compound 3.162 µM): 0.735
relative viability ([3]; first compound 10 µM): 0.6
relative viability ([3]; first compound 31.62 µM): 0.947
relative viability ([3]; first compound 100 µM): 0.529
relative viability ([4]; first compound 0.04 µM): 1.07
relative viability ([4]; first compound 0.1265 µM): 0.6
relative viability ([4]; first compound 0.4 µM): 0.99
relative viability ([4]; first compound 1.265 µM): 0.619
relative viability ([4]; first compound 4 µM): 0.448
